Patent US8586611B2 (priority 2005, dated 2013)

How the values were obtained:
Type in all cases: in vivo
[1] = tested on: Pseudoperonospora cubensis; test: Test A: cucumber downy mildew, spray the day before inoculation (disease rating, 100 = 100% disease control); settings: spray the day before inoculation, compounds without asterisk (not 40 or 10 ppm)
Excerpt: The test compounds were first dissolved in acetone in an amount equal to 3% of the final volume and then suspended at the desired concentration (in ppm) in acetone and purified water (50/50 mix by volume) containing 250 ppm of the surfactant Trem® 014 (polyhydric alcohol esters). The resulting test suspensions were then used in tests A-E. Spraying a 200 ppm test suspension to the point of run-off on the test plants was the equivalent of a rate of 500 g/ha.
The test suspension was sprayed to the point of run-off on cucumber seedlings. The following day the seedlings were inoculated with a spore suspension of Pseudoperonospora cubensis (the causal agent of cucumber downy mildew) and incubated in a saturated atmosphere at 20° C. for 24 h, and then moved to a growth chamber at 20° C. for 6 days, after which disease ratings were made.
Results for Tests A-F are given in Table A. In the table, a rating of 100 indicates 100% disease control and a rating of 0 indicates no disease control (relative to the controls). A dash (-) indicates no test results.

[2] = tested on: Erysiphe graminis f. sp. tritici; test: Test E: wheat powdery mildew, spray the day before inoculation (disease rating, 100 = 100% disease control); settings: spray the day before inoculation, compounds without asterisk (not 40 or 10 ppm)
In short: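 Protective test: spores of E. graminis f. sp. tritici dusted on wheat seedlings one day after run-off spraying of test suspension (acetone/water with 250 ppm surfactant; 200 ppm = 500 g/ha). Ratings after 7 days in growth chamber at 20° C, 100 = full control, 0 = none, relative to controls.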

Plasmopara viticola = test: Test B: grape downy mildew, spray 24 h after inoculation (disease rating, 100 = 100% disease control); settings: spray 24 h after inoculation, compounds without asterisk (not 40 or 10 ppm)
In short: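 This is a curative spray test, applied 24 h after inoculation. Compounds in 50/50 acetone–water with 250 ppm Trem 014 surfactant were sprayed to run-off on P. viticola-infected seedlings, with 200 ppm equating to 500 g/ha. Plants were kept 5 days in a 20 °C growth chamber, then 24 h humid, and scored 0–100 for disease control relative to controls.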

Phytophthora infestans = test: whole plant or invertebrate; settings: tomato late blight; spray the day before inoculation; compounds without asterisk (not 40 or 10 ppm)

SMILES	Test A disease rating (100 = 100% disease control, 0 = no disease control) [1] [%]	Test E disease rating (100 = 100% disease control, 0 = no disease control) [2] [%]	Test B disease rating (100 = 100% disease control, 0 = no disease control) (Plasmopara viticola) [%]	Test C disease rating (100 = 100% disease control, 0 = no disease control) (Phytophthora infestans) [%]
C[C@H](c1ccccc1)N(C)C(=O)c1csc(C2CCN(C(=O)Cc3ccc(Cl)cc3Cl)CC2)n1 [compound 6]	0	41	28	0
C[C@H](c1ccccc1)N(C)C(=O)c1csc(C2CCN(C(=O)Cc3cccc(S(C)(=O)=O)c3)CC2)n1 [compound 31]	0	0	0	0
C[C@H](c1ccccc1)N(C)C(=O)c1csc(C2CCN(C(=O)Cc3ccc(F)c(C(F)(F)F)c3)CC2)n1 [compound 34]	85	0	48	31
C[C@H](c1ccccc1)N(C)C(=O)c1csc(C2CCN(C(=O)Cc3cc(F)cc(F)c3)CC2)n1 [compound 37]	85	87	23	80
C[C@H](c1ccccc1)N(C)C(=O)c1csc(C2CCN(C(=O)Cc3cc(F)cc(C(F)(F)F)c3)CC2)n1 [compound 40]	98	0	76	60
C[C@H](c1ccccc1)N(C)C(=O)c1csc(C2CCN(C(=O)Cc3cccc(C(F)(F)F)c3F)CC2)n1 [compound 42]	99	21	31	100
Cc1cc(C)cc(CC(=O)N2CCC(c3nc(C(=O)N(C)[C@H](C)c4ccccc4)cs3)CC2)c1 [compound 43]	100	21	83	100
C[C@H](c1ccccc1)N(C)C(=O)c1csc(C2CCN(C(=O)Cc3ccccc3OC(F)(F)F)CC2)n1 [compound 45]	95	0	70	98
C[C@H](c1ccccc1)N(C)C(=O)c1csc(C2CCN(C(=O)Cc3cccc(OC(F)(F)F)c3)CC2)n1 [compound 49]	97	85	83	67
C[C@H](c1ccccc1)N(C)C(=O)c1csc(C2CCN(C(=O)Nc3cccc(C(F)(F)F)c3)CC2)n1 [compound 155]	100	0	41	31
CN(Cc1ccccc1)C(=O)c1csc(C2CCN(C(=O)Cc3ccccc3Cl)CC2)n1 [compound 161]	0	42	14	15
